The record followed here is patent US20240300980A1, “HETEROCYCLIC COMPOUNDS AS KRAS INHIBITOR, AND PREPARATION THEREFOR AND USE THEREOF IN TREATMENT” (SHANGHAI KECHOW PHARMA, INC., priority 2021, published 2024).

Usually IC50 stands for the concentration needed to halve the response being measured.

In one assay the test system is AGS cells (KRAS^G12D). Briefly: Detection of cell proliferation in vitro by MTT/MTS method (cell activity experiment). Particulars: AGS cells; MTT/MTS; 3 days of drug treatment; read-out: AGS IC50. It counts as cell-based. In short, it runs like this:
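After 3-day compound exposure (final DMSO 0.5%), viability of AGS (KRAS G12D) cells, plated 1000/well one day before dosing, was measured at 490 nm following 4 h MTT or MTS incubation. IC50 was fitted from dose–effect curves relative to DMSO-treated wells.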
Background: Tetrazolium dyes change colour on reduction, which living cells bring about.
Take `CCC1CCCc2cc(O)cc(-c3ccc4c(N5C[C@H]6CC[C@@H](C5)N6)nc(OC[C@@]56CCCN5C[C@H](F)C6)nc4c3F)c21` (single isomer, unassigned) [Example 290]: the half-inhibitory concentration (IC50) came out at 3410 nM.
Regarding `Oc1cc2c(c(-c3ncc4c(N5C[C@H]6CC[C@@H](C5)N6)nc(OC[C@@]56CCCN5C[C@H](F)C6)nc4c3F)c1)CCCC2` [Example 419, 4-(4-((1R,5S)-3,8-diazabicyclo[3.2.1]octan-3-yl)-8-fluoro-2-(((2R,7aS)-2-fluorotetrahydro-1H-pyrrolizin-7a(5H)-yl)methoxy)pyrido[4,3-d]pyrimidin-7-yl)-5,6,7,8-tetrahydronaphthalen-2-ol], the IC50 stood at 14 nM.

Still in this assay, the particulars now being: Homo sapiens, AGS, 72 h, AGS cells; MTT/MTS; 3 days of drug treatment; read-out: AGS IC50.
In the case of `CCc1cccc2cc(O)cc(-c3ccc4c(N5C[C@H]6CC[C@@H](C5)N6)c(C#N)c(OC[C@@]56CCCN5C[C@H](F)C6)nc4c3)c12` [Example 174, 4-((1R,5S)-3,8-diazabicyclo[3.2.1]octan-3-yl)-7-(8-ethyl-3-hydroxynaphthalen-1-yl)-2-(((2R,7aS)-2-fluorotetrahydro-1H-pyrrolizin-7a(5H)-yl)methoxy)quinoline-3-carbonitrile], the IC50 amounted to 1460 nM.
As for `C#Cc1c(F)ccc2cc(O)cc(-c3ncc4c(N5CC6CCC(C5)C6C#N)nc(OC[C@@]56CCCN5C[C@H](F)C6)nc4c3F)c12` (stereo partly drawn) [Example 62, (1R,5S,8S)-3-(7-(8-ethynyl-7-fluoro-3-hydroxynaphthalen-1-yl)-8-fluoro-2-(((2R, 7aS)-2-fluorotetrahydro-1H-pyrrolizin-7a(5H)-yl)methoxy)pyrido[4,3-d]pyrimidin-4-yl)-3-azabicyclo[3.2.1] octane-8-carbonitrile], the IC50 was greater than 2500 nM.
On the same count and under the same terms, then `C#Cc1c(F)ccc2cc(O)cc(-c3ccc4c(N5C[C@H]6CC[C@@H](C5)N6)nc(OC[C@@]56CCCN5C[C@H](F)C6)nc4c3F)c12` [Example 91, 4-(4-((1R,5S)-3,8-diazabicyclo[3.2.1]octan-3-yl)-8-fluoro-2-(((2R,7aS)-2-fluorotetrahydro-1H-pyrrolizin-7a(5H)-yl)methoxy)quinazolin-7-yl)-5-ethynyl-6-fluoronaphthalen-2-ol], with 1.3 nM; and `C#Cc1c(F)ccc2cc(O)cc(-c3ccc4c(N5CC6CCCC(C5)N6)nc(OC[C@@]56CCCN5C[C@H](F)C6)nc4c3F)c12` [Example 105, 4-(4-(3,9-diazabicyclo [3.3.1]nonan-3-yl)-8-fluoro-2-(((2R,7aS)-2-fluorotetrahydro-1H-pyrrolizin-7a(5H)-yl)methoxy)quinazolin-7-yl)-5-ethynyl-6-fluoronaphthalen-2-ol], with 80 nM.
`CC1CCCc2cc(O)cc(-c3c(Cl)cc4c(N5C[C@H]6CC[C@@H](C5)N6)nc(OC[C@@]56CCCN5C[C@H](F)C6)nc4c3F)c21` (stereo partly drawn) [Example 301, 4-(4-((1R,5S)-3,8-diazabicyclo[3.2.1]octan-3-yl)-6-chloro-8-fluoro-2-(((2R,7aS)-2-fluorotetrahydro-1H-pyrrolizin-7a(5H)-yl)methoxy)quinazolin-7-yl)-5-methyl-5,6,7,8-tetrahydronaphthalen-2-ol]: the half-inhibitory concentration (IC50) was 28 nM.
Turning to `O=S1(=O)[C@@H]2CC[C@H]1CN(c1nc(OC[C@@]34CCCN3C[C@H](F)C4)nc3c(F)c(-c4cc(O)cc5ccc(F)c(F)c45)ncc13)C2` [Example 29, (1R,5S)-3-(7-(7,8-difluoro-3-hydroxynaphthalen-1-yl)-8-fluoro-2-(((2R,7aS)-2-fluorotetrahydro-1H-pyrrolizin-7a(5H)-yl)methoxy)pyrido[4,3-d]pyrimidin-4-yl)-8-thia-3-azabicyclo [3.2.1]octane 8,8-dioxide], the concentration for half-maximal inhibition (IC50) was greater than 2500 nM.
The same measure, in the same setting: then `CC(C)C1CCc2cc(O)cc(-c3ncc4c(N5C[C@H]6CC[C@@H](C5)N6)nc(OC[C@@]56CCCN5C[C@H](F)C6)nc4c3F)c21` (stereo partly drawn) [Example 268, 7-(4-((1R,5S)-3,8-diazabicyclo[3.2.1]octan-3-yl)-8-fluoro-2-(((2R,7aS)-2-fluorotetrahydro-1H-pyrrolizin-7a(5H)-yl)methoxy)pyrido[4,3-d]pyrimidin-7-yl)-1-isopropyl-2,3-dihydro-1H-inden-5-ol], with 4000 nM.
Same read-out and setting: in the case of `CCc1c(F)ccc2cc(O)cc(N3CCc4c(nc(OC[C@]56CCCN5[C@@H](COC(=O)N(C)C)CC6)nc4N4C[C@H]5CC[C@@H](C4)N5)C3)c12` [Example 210, ((3R,7aR)-7a-(((4-((1R,5S)-3,8-diazabicyclo[3.2.1]octan-3-yl)-7-(8-ethyl-7-fluoro-3-hydroxynaphthalen-1-yl)-5,6,7,8-tetrahydropyrido[3,4-d]pyrimidin-2-yl)oxy)methyl)hexahydro-1H-pyrrolizin-3-yl)methyl dimethylcarbamate] it was 65 nM.
Regarding `C#Cc1c(F)ccc2cc(O)cc(-c3ncc4c(N5C[C@H]6CC[C@@H](C5)N6)nc(OC[C@@]56CCCN5C[C@H](F)C6)nc4c3O)c12` [Example 332, 4-((1R,5S)-3,8-diazabicyclo[3.2.1]octan-3-yl)-7-(8-ethynyl-7-fluoro-3-hydroxynaphthalen-1-yl)-2-(((2R,7aS)-2-fluorotetrahydro-1H-pyrrolizin-7a(5H)-yl)methoxy)pyrido[4,3-d]pyrimidin-8-ol], the IC50 is greater than 2500 nM.
As for `Oc1cc2c(c(-c3ncc4c(N5C[C@H]6CC[C@@H](C5)N6)nc(OC[C@@]56CCCN5C[C@H](F)C6)nc4c3F)c1)C(F)CCC2` (stereo partly drawn) [Example 272, 4-(4-((1R,5S)-3,8-diazabicyclo[3.2.1]octan-3-yl)-8-fluoro-2-(((2R,7aS)-2-fluorotetrahydro-1H-pyrrolizin-7a(5H)-yl)methoxy)pyrido[4,3-d]pyrimidin-7-yl)-5-fluoro-5,6,7,8-tetrahydronaphthalen-2-ol], the half-inhibitory concentration (IC50) is 70 nM.
Still for that read-out and setting: in the case of `CCc1c(F)ccc2cc(O)cc(-c3ccc4c(N5C[C@H]6CC[C@@H](C5)N6)nc(OC[C@@]56CCCN5C[C@H](F)C6)nc4c3F)c12` [Example 92, 4-(4-((1R,5S)-3,8-diazabicyclo[3.2.1]octan-3-yl)-8-fluoro-2-(((2R,7aS)-2-fluorotetrahydro-1H-pyrrolizin-7a(5H)-yl)methoxy)quinazolin-7-yl)-5-ethyl-6-fluoronaphthalen-2-ol] it was 2.7 nM.
Regarding `CC[C@H]1CCc2cc(O)cc(-c3ncc4c(N5CC6CCC(C5)N6)nc(OC[C@@]56CCCN5C[C@H](F)C6)nc4c3F)c21` (single isomer, unassigned) [Example 222, (S)-7-(4-((1R,5S)-3,8-diazabicyclo[3.2.1]octan-3-yl)-8-fluoro-2-(((2R,7aS)-2-fluorotetrahydro-1H-pyrrolizin-7a(5H)-yl)methoxy)pyrido[4,3-d]pyrimidin-7-yl)-1-ethyl-2,3-dihydro-1H-inden-5-ol or (R)-7-(4-((1R,5S)-3,8-diazabicyclo[3.2.1]octan-3-yl)-8-fluoro-2-(((2R,7aS)-2-fluorotetrahydro-1H-pyrrolizin-7a(5H)-yl)methoxy)pyrido[4,3-d]pyrimidin-7-yl)-1-ethyl-2,3-dihydro-1H-inden-5-ol], the concentration for half-maximal inhibition (IC50) was determined as 2.5 nM.
Still for that read-out and setting: then `Oc1cc2c(c(C3=C(F)c4nc(OC[C@@]56CCCN5C[C@H](F)C6)nc(N5C[C@H]6CC[C@@H](C5)N6)c4C4=NCCN43)c1)CCCC2` [Example 406, 4-(10-((1R,5S)-3,8-diazabicyclo[3.2.1]octan-3-yl)-6-fluoro-8-(((2R,7aS)-2-fluorotetrahydro-1H-pyrrolizin-7a(5H)-yl)methoxy)-2,3-dihydroimidazo[1′,2′:1,2]pyrido[4,3-d]pyrimidin-5-yl)-5,6,7,8-tetrahydronaphthalen-2-ol], with 120 nM.
Turning to `CC1CCCc2cc(O)cc(-c3c(F)c4nc(OC[C@@]56CCCN5C[C@H](F)C6)nc(N5C[C@H]6CC[C@@H](C5)N6)c4c4cncn34)c21` (stereo partly drawn) [Example 417, 4-(1-((1R,5S)-3,8-diazabicyclo[3.2.1]octan-3-yl)-5-fluoro-3-(((2R,7aS)-2-fluorotetrahydro-1H-pyrrolizin-7a(5H)-yl)methoxy)imidazo[1′,5′:1,2]pyrido[4,3-d]pyrimidin-6-yl)-5-methyl-5,6,7,8-tetrahydronaphthalen-2-ol], the IC50 came out at 35 nM.
The same measure, in the same setting: in the case of `C#Cc1c(F)ccc2cc(O)cc(-c3ccc4c(N5C[C@H]6CC[C@@H](C5)N6)nc(OC[C@@]56CCCN5C[C@H](F)C6)nc4c3OC3CC3)c12` [Example 327, 4-(4-((1R,5S)-3,8-diazabicyclo[3.2.1]octan-3-yl)-8-cyclopropoxy-2-(((2R,7aS)-2-fluorotetrahydro-1H-pyrrolizin-7a(5H)-yl)methoxy)quinazolin-7-yl)-5-ethynyl-6-fluoronaphthalen-2-ol] it was 230 nM.
Still for that read-out and setting: in the case of `C#Cc1c(F)ccc2cc(O)cc(-c3ncc4c(N5C[C@H]6CC[C@@H](C5)N6)nc(OCC56CC5CCN6C)nc4c3F)c12` (stereo partly drawn) [Example 77, 4-(4-((1R,5S)-3,8-diazabicyclo[3.2.1]octan-3-yl)-8-fluoro-2-((2-methyl-2-azabicyclo[3.1.0]hexan-1-yl)methoxy)pyrido [4,3-d]pyrimidin-7-yl)-5-ethynyl-6-fluoronaphthalen-2-ol] it was greater than 2500 nM.
The same measure, in the same setting: in the case of `C#Cc1c(F)ccc2cc(O)cc(-c3ncc4c(N5CC6CCNC6C5)nc(OC[C@@]56CCCN5C[C@H](F)C6)nc4c3F)c12` (stereo partly drawn) [Example 54, 5-ethynyl-6-fluoro-4-(8-fluoro-2-(((2R,7aS)-2-fluorotetrahydro-1H-pyrrolizin-7a(5H)-yl)methoxy)-4-(hexahydropyrrolo[3,4-b]pyrrol-5(1H)-yl)pyrido [4,3-d]pyrimidin-7-yl) naphthalen-2-ol] it was greater than 2500 nM; in that of `C#Cc1c(F)ccc2cc(O)cc(N3CCc4c(nc(OC[C@]56CCCN5[C@@H](COC(=O)N(C)C)CC6)nc4N4C[C@H]5CC[C@@H](C4)N5)C3)c12` [Example 209, ((3R,7aR)-7a-(((4-((1R,5S)-3,8-diazabicyclo[3.2.1]octan-3-yl)-7-(8-ethynyl-7-fluoro-3-hydroxynaphthalen-1-yl)-5,6,7,8-tetrahydropyrido[3,4-d]pyrimidin-2-yl)oxy)methyl)hexahydro-1H-pyrrolizin-3-yl)methyl dimethylcarbamate], 35 nM.
